In patent publication US11654136B2, “Phosphoinositide 3-kinase inhibitor with a zinc binding moiety” (Curis, Inc., priority 2011, dated 2023):

Tests used:
[1] = system: Raf, MEK, and ERK; experiment: Western blot of RAF-MEK-ERK pathway in H460, A375, BT-474 and H1975 cells; format: cell-based; settings: 100 nM, 16 hours
Protocol: Cell extracts were prepared in the presence of SDS and 2-mercaptoethanol and resolved in polyacrylamide gels. Proteins were transferred to nitrocellulose filter and blotting was done using standard procedures with blocking solutions (Li-Cor Bioscience) containing the indicated primary antibody. Primary antibodies against p-EGFR, EGFR, p-HER2, HER2, p-HER3, HER3, p-MET, MET, p-bRaf, p-cRaf, pMEK, MEK, p-ERK, ERK and tubulin were purchased from Cell Signaling Technology. Secondary antibody conjugated with IRdye 680, 800CW were used and the signal was detected with Li-Cor Odyssey Imager.
One major limitation of PI3K inhibitors in the treatment of cancers is the activation of the RAF-MEK-ERK pathway. HDAC inhibitors are able to inhibit kinase levels in this signaling pathway in cancer cells via epigenetic modification.

[2] = system: T and B lymphocytes; experiment: Effect on circulating and lymphoid organ lymphocytes; format: in vivo, CD1 wild type mice; settings: 100 mg/kg orally for five consecutive days
Protocol: Another 5 mice were treated with vehicle. Blood was collected at various time points (including pre-dosing, during dosing and post-dosing) from the mandibular vein. Blood was analyzed with a flow cytometer for T and B cell quantification.
The animals were sacrificed, and the lymphoid organs were collected. Cells were physically dissociated from the tissues and analyzed with a flow cytometer. Anti-CD3 and -CD19 antibodies were used to stain T and B cells, respectively.

[3] = Pharmacokinetic study in rats; format: in vivo; settings: rat, single oral gavage 20 mg/kg, male Sprague-Dawley rats, plasma
Protocol: The resulting clear yellow solution was stored at room temperature until picked up for dosing.
Three male Sprague-Dawley rats from Charles River Laboratories were used in this study. High fat diet (VHFD, D12492i) from Research Diets Inc. were provided ad libitum throughout the in-life portion of the study.
Blood samples (approximate volume 150 μL) were collected tail vein at 0.25, 0.5, 1, 3, 6, and 24 hours postdose. Blood samples were placed into tubes containing sodium heparin and centrifuged at 8000 rpm for 6 minutes at 4° C. to separate plasma from the samples. Following centrifugation, the resulting plasma was transferred to clean tubes and stored frozen at −80° C. pending bioanalysis.
The pharmacokinetic parameters were determined from mean concentration-time data in the test subjects. A compartmental modeling of WINNONILIN® Professional 5.2. was used to calculate parameters. Any concentrations that were below the limit of quantitation (lower limit of quantitation=1 ng/mL) were omitted from the calculation of parameters in individual animals.

[4] = system: MM1S human MM xenograft; experiment: Combination with lenalidomide in the MM1S xenograft model; format: in vivo, SCID/Beige mice; settings: 75 mg/Kg PO Qd (Mon-Fri); 17 days; single agent
Protocol: Female SCID/Beige mice at age 4 weeks were housed in ventilated micro-isolator cages (INNOCAGE®IVC, Innovive Inc., San Diego, Calif.) in a controlled climate, fed with sterile high-fat diet (Problab-RMH 2000) ad libitum and provided with sterilized water. All housing and supplies for SCID/Beige mice were sterilized by autoclaving before use. Mice were inspected daily including weekends/holidays by trained animal facility personnel and investigators. All animal procedures were performed under sterile conditions within a biosafety cabinet (for injections) or laminar flow hood (for animal husbandry and non-invasive procedures).
Cryopreserved MM1S human MM cells were thawed in a 37° C. water bath and cultured in RPMI medium plus 10% Fetal Bovine Serum (FBS) in a tissue culture incubator at 5% CO2. […] The implanted mice were monitored for general health and tumor development daily.
Tumors were detectable about two weeks following implantation. Tumor size was measured with a caliper. […]
During each animal study, tumors were measured with calipers, tumor size determined using the above mentioned formula, and tumor size changes in percentage calculated. Mouse body weights were measured with a scale twice per week. […] T/C values were calculated using the following formula: % T/C=100×ΔT/ΔC if ΔT>0. […]

## COc1ccc(-c2nc(N3CCOCC3)c3sc(CN(C)c4ncc(C(=O)NO)cn4)cc3n2)cn1 [Compound 1, N-hydroxy-2-(((2-(6-methoxypyridin-3-yl)-4-morpholinothieno[3,2-d]pyrimidin-6-yl)methyl)(methyl)amino)pyrimidine-5-carboxamide]
[1]
  Activation of Raf, MEK, and ERK: suppressed activation of Raf, MEK, and ERK
[2]; blood
  Blood levels of T and B lymphocytes: significant reversible reduction in the blood levels of both T and B lymphocytes
[2]; spleen and lymph nodes
  T and B lymphocyte levels in spleen and lymph nodes: significant reduction in both T and B lymphocytes
[3]
  AUC(0-inf): 164 ng·h/mL
  Cmax: 39.5 ng/mL
  Tmax: 6 min
[3]; read-out: half-life (T1/2) (converted)
  Half-life: 11.7 h
[4]
  Tumor growth: more effective than Lenalidomide at either 12.5 or 25 mg/Kg PO as single agents
